Data published in patent EP4755891A1, “ARF1 INHIBITOR AND USE THEREOF” (AOBIO PHARMACEUTICAL CO., LTD., priority 2023, dated 2025).
“Also recorded” adds a separate entry of the source.

Experiments:
[1] = Plasma stability, mouse plasma; assay type: in vitro ADME; details: 2.0 µM, 37°C
Procedure: (§1) At 37°C, 2.0 µM of the compound was co-incubated with plasma samples from five species (mouse, rat, dog, cynomolgus monkey, human) for 120 minutes. The concentration of the compound in the samples was detected by the liquid chromatography-tandem mass spectrometry (LC-MS/MS) method, and the half-life (T1/2) was calculated.

[2] = biological target: T1, Arf1 (Homo sapiens, UniProt P84077); experiment: Inhibition test of Arf1 activation (Active Arf1 pull-down and detection kit, Western blot); assay type: cell-based; details: lysate of liver cancer Huh-7 cells; GTP-bound Arf1; FIG. 3
T1 construct: endogenous in cells; host or cells: Huh-7 liver cancer cells (lysate)
Procedure: In this example, the inhibitory ability of Compounds 3 and 9 synthesized in the above preparation examples on Arf1 activation was tested. The Pierce Active Arf1 Pull-Down and Detection Kit (Thermo Scientific, Cat#16121) was used with the lysate of liver cancer Huh-7 cells to detect the activated Arf1. It is a complete kit that selectively enriches and detects GTP-bound Arf1 GTPase through specific protein interactions with the GGA3 protein-binding domain.

[3] = Solubility in DMSO and H2O
[4] = Plasma stability, rat plasma; assay type: in vitro ADME; details: 37°C; for remaining amount in plasma: rat plasma, 2.0 µM
Procedure: as §1

[5] = system: CCL5; experiment: Upregulation of chemokine CCL5 expression (quantitative RT-PCR); assay type: cell-based, Murine; details: CT26 cells; FIG. 5
Procedure: In this example, the upregulation of chemokine CCL5 expression induced by the treatment of Compounds 3 and 9 synthesized in the above preparation examples was tested. Quantitative RT-PCR was used to measure the expression level of chemokine CCL5 in CT26 cells treated with DMSO, Compound 3, or Compound 9.

[6] = Plasma stability, human plasma; assay type: in vitro ADME; details: 2.0 µM, 37°C
Procedure: as §1

[7] = Permeability in Caco-2 cells; assay type: in vitro ADME; details: human, Caco-2, pH 7.4, 2.00 µM
Procedure: (§2) The permeability of Compound 9 was evaluated using Caco-2 cells. The transport buffer used in this study was HBSS with 10.0 mM HEPES, pH 7.40±0.05. The test concentration was 2.00 µM, and a bidirectional test was performed on the test compound. Digoxin was repeatedly tested bidirectionally at 10.0 µM, while nadolol and metoprolol were repeatedly tested in the A-B direction at 2.00 µM. The final DMSO concentration was adjusted to less than 1%. The mixture was incubated at 37.0°C, 5% CO2, saturated humidity, without shaking in a CO2 incubator for 2 hours. All samples were mixed with acetonitrile containing internal standards and centrifuged at 3220 × g for 10 mins. The concentrations of the test compound and reference compound in the initial solution, donor solution, and acceptor solution were determined by the LC-MS/MS, using the analyte/internal standard peak area ratio.

[8] = system: Caco-2 cells; experiment: Permeability in Caco-2 cells; assay type: in vitro ADME; details: Caco-2, conclusion in words
Procedure: as §2

[9] = system: Drosophila orthotopic tumors; experiment: Inhibition of orthotopic tumor growth in Drosophila; assay type: in vivo; details: 5 µM in food, 4 days; Ras^V12-PMML clones; FIG. 7
Procedure: In this example, the inhibitory effects of Compounds 3 and 9 synthesized in the above preparation examples on the growth of Drosophila orthotopic tumors were tested. As previously described, renal stem cell tumor clusters were induced by expressing Ras in Drosophila renal stem cell (Ras^V12-PMML) clones (Singh et al., 2016). The Drosophila carrying Ras^V12-PMML clones were cultured with normal food at room temperature for 4 days to allow tumor growth. They were then switched to food containing the indicated drugs for an additional 4 days, followed by feeding the Drosophila carrying Ras^V12-PMML with normal food containing DMSO or 5 µM Compound 3 or Compound 9. In the indicated groups, the number of esg>GFP + tumor cells per 5×10^3 µm^2 area was quantified to characterize tumor size.

[10] = system: CT26 colon cancer; experiment: Inhibition of CT26 colon cancer in BALB/c mice (Example 47, 5 mg/kg); assay type: in vivo; details: gavaged daily, two consecutive weeks
Procedure: In this example, the inhibitory effects of Compounds 9, 11-3, 25, 26, 27, and DU102 on colon cancer growth were tested.
Murine CT26 cells were inoculated into the left abdomen of 6-week-old male mice at a dose of 5×10^5 cells per mouse. Approximately 7 days later, the mice were randomly divided into two groups: the control group or the compound treatment group. They were gavaged daily with either the vehicle control (ddH2O or 5% DMSO in corn oil) or 5 mg/kg of Compounds 9, 11-3, 25, 26, or 27 (dissolved in the corresponding vehicle) for two consecutive weeks. Tumor diameters were measured every 2-3 days using a digital caliper (ULINE, Cat^# H-7352), and the tumor volume was calculated using the formula ½ × longitudinal diameter (length) × maximum transverse diameter (width). When the maximum tumor volume reached 2000 mm^3, the mice were euthanized.

[11] = Plasma stability, dog plasma; assay type: in vitro ADME; details: 2.0 µM, 37°C
Procedure: as §1

T1 sequence (P84077 whole entry): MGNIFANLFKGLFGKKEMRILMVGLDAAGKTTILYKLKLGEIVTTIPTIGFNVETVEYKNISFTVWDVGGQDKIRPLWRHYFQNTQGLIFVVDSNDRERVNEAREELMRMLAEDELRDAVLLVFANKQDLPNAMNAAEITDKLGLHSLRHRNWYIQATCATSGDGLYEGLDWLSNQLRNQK

Cc1csc2ncnc(Nc3ccc4c(c3)ncn4C)c12 [Compound 9, 5-Methyl-N-(1-methyl-1H-benzo[d]imidazol-5-yl)thieno[2,3-d]pyrimidin-4-amine]
remaining amount in plasma ([1]; time point 0 min): 100.0% | remaining amount in plasma ([1]; time point 10 min): 99.3% | remaining amount in plasma ([1]; time point 30 min): 98.6% | remaining amount in plasma ([1]; time point 60 min): 104.1% | remaining amount in plasma ([1]; time point 120 min): 96.5% | inhibition of Arf1 activation [2]: effectively inhibit the activation of Arf1; also recorded: effective inhibitors | solubility in DMSO ([3]; DMSO, FIG. 2A): soluble | solubility in H2O ([3]; H2O, FIG. 2B): high solubility | half-life at 2 µM ([4]; plasma, printed in the Rat row): > 289 min | remaining amount in plasma ([4]; time point 0 min): 100.0% | remaining amount in plasma ([4]; time point 10 min): 102.1% | remaining amount in plasma ([4]; time point 30 min): 93.5% | remaining amount in plasma ([4]; time point 60 min): 99.3% | remaining amount in plasma ([4]; time point 120 min): 93.2% | expression of the chemokine CCL5 [5]: effectively promote the expression | remaining amount in plasma ([6]; time point 0 min): 100.0% | remaining amount in plasma ([6]; time point 10 min): 99.8% | remaining amount in plasma ([6]; time point 30 min): 108.9% | remaining amount in plasma ([6]; time point 60 min): 113.3% | remaining amount in plasma ([6]; time point 120 min): 104.6% | Papp A→B at 2 h, 2 µM ([7]; 2 hours, pH 7.40±0.05): 29 ×10⁻⁶ cm/s | Papp B→A at 2 h, 2 µM ([7]; 2 hours, pH 7.40±0.05): 20.7 ×10⁻⁶ cm/s | efflux ratio at 2 h, 2 µM ([7]; bidirectional, read-out: Efflux Ratio (ER)): 0.714 | cellular permeability [8]: high cellular permeability | substrate of the efflux transporter P-gp [8]: unlikely to be a substrate of the efflux transporter P-gp | orthotopic tumor growth in Drosophila [9]: effectively inhibit orthotopic tumor growth | size of murine colon cancer ([10]; FIG. 9A): size of murine colon cancer inhibited | weight of murine colon cancer ([10]; FIG. 9B): weight of murine colon cancer reduced significantly | inhibition of CT26 colon cancer ([10]; FIG. 9 and FIG. 10): effectively inhibit CT26 colon cancer | remaining amount in plasma ([11]; time point 0 min): 100.0% | remaining amount in plasma ([11]; time point 10 min): 99.0% | remaining amount in plasma ([11]; time point 30 min): 94.0% | remaining amount in plasma ([11]; time point 60 min): 98.8% | remaining amount in plasma ([11]; time point 120 min): 86.0%
